Patent US20220133842A1 (priority 2019, published 2022)
≈ marks a conversion by molar mass, not a printed value. Where “and” joins values, the source holds several entries; their conditions need not be identical. Identical values can stand only once. Like-named read-outs stand apart in the source and are kept apart here.

Legend:
[1] = tested on: Clostridium perfringens (ATCC 13124); assay: microbe, parasite or virus in culture; conditions: ATCC13124
[2] = tested on: Clostridium perfringens (ATCC 13124)
[3] = tested on: Listeria monocytogenes (DSM 20600); format: cell-based
[4] = tested on: Clostridium propionicum (DSM 6251); assay: microbe, parasite or virus in culture; format: cell-based
[5] = tested on: Fusarium verticillioides (DSM 62264); format: cell-based
[6] = tested on: Bacillus subtilis (DSM 347); format: cell-based
[7] = tested on: Clostridium botulinum (DSM 1985); assay: microbe, parasite or virus in culture; format: cell-based
[8] = tested on: Clostridium perfringens (ATCC13124); format: cell-based
[9] = tested on: Fusarium graminearum (DSM 1095); format: cell-based
[10] = tested on: Candida albicans (DSM 10697); format: cell-based
Bacillus cereus (DSM 31) = format: cell-based
[11] = tested on: Fusarium oxysporum (DSM 62316); format: cell-based
[12] = tested on: Pseudomonas aeruginosa (CIP 107398); format: cell-based
T84 cells (ATCC CCL-248) = assay: cells; format: cell-based, human; conditions: read-out: IC50 (concentration causing 50% cell death)
[13] = tested on: clinical strains of Clostridium perfringens isolated from human patients or animals; format: cell-based
[14] = tested on: Aspergillus flavus (DSM 1959); format: cell-based
[15] = tested on: Clostridium perfringens (ATCC 13124); format: cell-based
[16] = tested on: Penicillium verrucosum (DSM 12639); format: cell-based
[17] = tested on: Enterococcus faecalis (DSM 13591); assay: microbe, parasite or virus in culture; format: cell-based
[18] = tested on: Bacteroides thetaioataomicron (DSM 2255); assay: microbe, parasite or virus in culture; format: cell-based
[19] = tested on: Lactobacillus acidophilus (DSM 20079); assay: microbe, parasite or virus in culture; format: cell-based
[20] = tested on: Caco-2 cells (ATCC HTB-37); assay: cells; format: cell-based, human; conditions: read-out: IC50 (concentration causing 50% cell death)
[21] = tested on: Clostridium nexile (DSM 1787); assay: microbe, parasite or virus in culture; format: cell-based
[22] = tested on: Acinetobacter baumannii (CIP 110431); format: cell-based
[23] = tested on: Arthrobacter gandavensis (DSM 2447); format: cell-based
[24] = tested on: Mycobacterium smegmatis (ATCC 700084); format: cell-based
[25] = tested on: Escherichia coli (ATCC 8739); format: cell-based
[26] = tested on: Staphylococcus aureus MRSA USA300 (ATCC BAA-1717); format: cell-based
[27] = tested on: Staphylococcus aureus (ATCC 6538P); format: cell-based
[28] = tested on: Clostridium coccoides (DSM 935); assay: microbe, parasite or virus in culture; format: cell-based
[29] = tested on: Clostridium difficile (DSM 1296); assay: microbe, parasite or virus in culture; format: cell-based
[30] = tested on: human (Caco-2 and T84) and pig (IPEC-J2) intestinal cells
[31] = tested on: Aspergillus niger (ATCC 9142); format: cell-based
[32] = tested on: Micrococcus luteus (DSM 20030); format: cell-based
[33] = tested on: Citrobacter rodentium (ATCC 51116); format: cell-based
[34] = tested on: Helicobacter pylori (ATCC 43504); assay: microbe, parasite or virus in culture; format: cell-based
[35] = tested on: Klebsiella variicola (DSM 15968); format: cell-based
[36] = tested on: Lactococcus lactis (DSM 20481); format: cell-based
[37] = tested on: Clostridium perfringens (ATCC 13124); format: cell-based; remark: listed apart in the source
[38] = tested on: Streptococcus thermophilus (ATCC LMD-9); assay: microbe, parasite or virus in culture; format: cell-based
[39] = tested on: Clostridium perfringens strain (ATCC 13124) and clinical strains of Clostridium perfringens; format: cell-based
[40] = tested on: Propionibacterium acnes (ATCC 6919); assay: microbe, parasite or virus in culture; format: cell-based
[41] = tested on: Streptococcus pyogenes (DSM 20565); assay: microbe, parasite or virus in culture; format: cell-based
[42] = tested on: Klebsiella pneumoniae (DSMZ 26371); format: cell-based
[43] = tested on: Citrobacter farmeri (ATCC 51633); format: cell-based
[44] = tested on: Salmonella enterica (CIP 80.39); format: cell-based
[45] = tested on: Aspergillus ochraceus (DSM 824); format: cell-based
IPEC-J2 cells [46] = assay: cells; format: cell-based, pig; conditions: read-out: IC50 (concentration causing 50% cell death)
[47] = tested on: Shigella flexneri (ATCC 12022); format: cell-based
[48] = tested on: human or porcine intestinal cells grown on inserts
IPEC-J2 cells [49] = tested on: IPEC-J2 cells
[50] = Clostridium perfringens, ATCC13124

In the case of `CN(C)[C@@H]1C(O)=C(C(N)=O)C(=O)[C@@]2(O)C(O)=C3C(=O)c4c(O)cccc4[C@@](C)(O)[C@H]3C[C@@H]12` [Tetracycline], the MIC [1] is reported as 11.7 µM and 5.2 µg/mL.

With Destruxin B the “MIC (mg/L)” value [2] was 1.78 mg/L, the MIC [3] was greater than 100 µM and the MIC [4] was greater than 100 µM. For the same compound, the MIC [5] was greater than 100 µM, the MIC [6] was greater than 100 µM and the MIC [7] was greater than 100 µM. The “change of MIC during exposure” value [8] was “do not change or change only slightly”, the MIC [9] was greater than 100 µM and the MIC [10] was greater than 100 µM. For the same compound, the MIC (Bacillus cereus (DSM 31)) was greater than 100 µM, the MIC [11] was greater than 100 µM and the MIC [12] was greater than 100 µM. For the same compound, the IC50 (T84 cells (ATCC CCL-248)) was greater than 100 µM, the MIC [13] was 3 µM and 1.5 µM and the MIC [14] was greater than 100 µM. For the same compound, the “permeabilisation of the bacterial membrane” value [15] was “no permeabilisation”, the MIC [16] was greater than 100 µM and the MIC [17] was greater than 100 µM. For the same compound, the MIC [18] was greater than 100 µM, the MIC [19] was greater than 100 µM and the IC50 [20] was greater than 100 µM. It also gave an MIC [21] greater than 100 µM, an MIC [22] greater than 100 µM and an MIC [23] greater than 100 µM. The MIC [24] was greater than 100 µM, the MIC [25] was greater than 100 µM and the MIC [26] was greater than 100 µM. It also gave an MIC [27] greater than 100 µM, an MIC [28] greater than 100 µM and an MIC [29] greater than 100 µM. For the same compound, the “toxicity to intestinal cells” value [30] was “not toxic”, the MIC [31] was greater than 100 µM and the MIC [32] was greater than 100 µM. For the same compound, the MIC [33] was greater than 100 µM, the MIC [34] was greater than 100 µM and the MIC [35] was greater than 100 µM. The MIC [36] was greater than 100 µM, the “morphological phenotype (mechanism of action)” value [37] was “hypercondensation of bacterial DNA” and the MIC [38] was greater than 100 µM. For the same compound, the “minimum bactericidal concentrations (BMC values)” value [39] was “identical to the MIC values”, the MIC [40] was greater than 100 µM and the MIC [41] was greater than 100 µM. For the same compound, the MIC [42] was greater than 100 µM, the MIC [43] was greater than 100 µM and the MIC [44] was greater than 100 µM. It also gave an MIC [45] greater than 100 µM, an IC50 (IPEC-J2 cells [46]) greater than 100 µM and an MIC [47] greater than 100 µM.

With `CO/C1=C\C(C)=C\[C@@H](C)[C@@H](O)[C@@H](C)C/C(C)=C/C=C/[C@H](OC)[C@@H]([C@@H](C)[C@@H](O)[C@H](C)[C@@]2(O)C[C@@H](O)[C@H](C)[C@@H](C(C)C)O2)OC1=O` [Bafilomycin A1] the MIC [2, 50] was 25 µM (≈ 15.6 µg/mL), the “MIC (mg/L)” value [2, 50] was 15.5 mg/L (≈ 24.9 µM) and the MIC [3] was 25 µM (≈ 15.6 µg/mL). For the same compound, the MIC [4] was 25 µM (≈ 15.6 µg/mL), the MIC [5] was 50 µM (≈ 31.1 µg/mL) and the MIC [6] was 100 µM (≈ 62.3 µg/mL). The MIC ([7]; Clostridium botulinum, DSM1985) was 6.25 µM (≈ 3.89 µg/mL), the transepithelial electrical resistance (Caco-2 cells) was 112 ohm.cm2 and the MIC ([9]; Fusarium graminearum (DSM 1095)) was 6.25 µM (≈ 3.89 µg/mL). The MIC [10] was greater than 100 µM, the MIC (Bacillus cereus (DSM 31)) was 12.5 µM (≈ 7.79 µg/mL) and the MIC [11] was greater than 100 µM. The MIC [12] was greater than 100 µM, the IC50 (T84 cells (ATCC CCL-248)) was 9.9 µM and the MIC [14] was 3.25 µM (≈ 2.02 µg/mL). For the same compound, the transepithelial electrical resistance (T84 cells) was 118 ohm.cm2, the MIC [17] was greater than 100 µM and the MIC [18] was greater than 100 µM. It also gave an MIC [19] of 33 µM (≈ 20.6 µg/mL), an IC50 [20] of 11.8 µM and an MIC [21] of 50 µM (≈ 31.1 µg/mL). It also gave an MIC [22] greater than 100 µM, an MIC [23] of 3 µM (≈ 1.87 µg/mL) and an MIC [24] greater than 100 µM. For the same compound, the MIC [25] was 25 µM (≈ 15.6 µg/mL), the MIC [26] was greater than 100 µM and the MIC [27] was 12.5 µM (≈ 7.79 µg/mL). For the same compound, the MIC [28] was greater than 100 µM, the MIC [29] was greater than 100 µM and the “safety factor (IC50 in the toxicity test divided by MIC on Clostridium perfringens ATCC 13124)” value [30] was “less than 1”. For the same compound, the “toxicity to intestinal cells” value [30] was “toxic”, the MIC [31] was greater than 100 µM and the MIC [32] was 25 µM (≈ 15.6 µg/mL). It also gave an MIC [33] greater than 100 µM, an MIC [34] greater than 100 µM and an MIC [35] greater than 100 µM. The MIC [36] was 50 µM (≈ 31.1 µg/mL), the “decrease in transepithelial electrical resistance” value [48] was 61-75% and the MIC [38] was 25 µM (≈ 15.6 µg/mL). The MIC [40] was 50 µM (≈ 31.1 µg/mL), the transepithelial electrical resistance (IPEC-J2 cells [49]) was 191 ohm.cm2 and the MIC [41] was 66 µM (≈ 41.1 µg/mL). For the same compound, the MIC [42] was 100 µM (≈ 62.3 µg/mL), the MIC [43] was 100 µM (≈ 62.3 µg/mL) and the MIC [44] was greater than 100 µM. The MIC [45] was greater than 100 µM, the IC50 (IPEC-J2 cells [46]) was 1.8 µM and the MIC [47] was greater than 100 µM.
